Laboratory results as given in PubChem BioAssay (NCI).
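Following 48 hours of exposure in 96-well plates, responses at five concentrations were used to interpolate endpoints linearly. Here, GI50 denotes the concentration required for 50% inhibition of growth. TGI marks complete inhibition of growth.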

What was measured:
Assay in all cases: NCI-60 cell line screen, 48 h; in the data active = GI50 below about 0.43 µM; inactive = the rest
[1] = test system: T-47D breast
[2] = test system: HOP-92 NSCLC
[3] = test system: SF-539 CNS
[4] = test system: K-562 leukemia
[5] = test system: RPMI-8226 leukemia
[6] = test system: CAKI-1 renal
[7] = test system: MCF7 breast
[8] = test system: ACHN renal
[9] = test system: UO-31 renal
[10] = test system: SK-MEL-2 melanoma
[11] = test system: HCT-15 colon
[12] = test system: SN12C renal
[13] = test system: MDA-MB-231 breast
[14] = test system: DU-145 prostate
[15] = test system: COLO 205 colon
[16] = test system: NCI-H23 lung
[17] = test system: MALME-3M melanoma
[18] = test system: UACC-257 melanoma
[19] = test system: SNB-75 CNS
[20] = test system: CCRF-CEM leukemia
[21] = test system: HT29 colon
[22] = test system: IGROV1 ovarian
[23] = test system: OVCAR-5 ovarian
[24] = test system: U251 CNS
[25] = test system: NCI-H460 lung
[26] = test system: SF-295 CNS
[27] = test system: NCI-H522 lung
[28] = test system: MOLT-4 leukemia
[29] = test system: HCC-2998 colon
[30] = test system: HCT-116 colon
[31] = test system: SR leukemia
[32] = test system: NCI-H226 lung
[33] = test system: HOP-62 NSCLC
[34] = test system: SK-OV-3 ovarian
[35] = test system: OVCAR-3 ovarian
[36] = test system: SF-268 CNS
[37] = test system: SW-620 colon
[38] = test system: HS 578T breast
[39] = test system: M14 melanoma
[40] = test system: BT-549 breast
[41] = test system: EKVX NSCLC
[42] = test system: TK-10 renal
[43] = test system: MDA-MB-435
[44] = test system: OVCAR-4 ovarian
[45] = test system: PC-3 prostate
[46] = test system: SK-MEL-5 melanoma
[47] = test system: A549 NSCLC
[48] = test system: NCI/ADR-RES ovarian
[49] = test system: OVCAR-8 ovarian
[50] = test system: HL-60(TB) leukemia
[51] = test system: SK-MEL-28 melanoma
[52] = test system: LOX IMVI melanoma
[53] = test system: SNB-19 CNS
[54] = test system: A498 renal
[55] = test system: KM12 colon
[56] = test system: RXF 393 renal
[57] = test system: UACC-62 melanoma
[58] = test system: 786-0 renal

CC(=O)O[C@H]1CC[C@@]2(C)C(=CC[C@@H]3[C@@H]2CC[C@]2(C)C(c4cccnc4)=CC[C@@H]32)C1
8.07 µM: TGI [5]
12.7 µM: TGI [21]
10.1 µM: TGI [46]
33.9 µM: TGI [17]
8.35 µM: TGI [26] | TGI [31]
95.8 µM: TGI [34]
43.9 µM: TGI [8]
17.3 µM: TGI [40]
33.7 µM: TGI [13]
32.5 µM: TGI [2]
inactive: GI50 [1] 2.81 µM | GI50 [2] 3.08 µM | GI50 [3] 3.14 µM | GI50 [4] 4.04 µM | GI50 [5] 2.81 µM | GI50 [6] 8.38 µM | GI50 [7] 4.84 µM | GI50 [8] 4.88 µM | GI50 [9] 5.47 µM | GI50 [10] > 100 µM | GI50 [11] 4.48 µM | GI50 [12] 17.2 µM | GI50 [13] 5.23 µM | GI50 [14] 22.3 µM | GI50 [15] 5.1 µM | GI50 [16] 6.6 µM | GI50 [17] 3.24 µM | GI50 [18] 28.1 µM | GI50 [19] 2.6 µM | GI50 [20] 16.7 µM | GI50 [21] 3.07 µM | GI50 [22] 26.7 µM | GI50 [23] 18.7 µM | GI50 [24] 4.47 µM | GI50 [25] 5.91 µM | GI50 [26] 2.33 µM | GI50 [27] 38.5 µM | GI50 [28] 6.3 µM | GI50 [29] 14 µM | GI50 [30] 4.49 µM | GI50 [31] 3.01 µM | GI50 [32] 17.7 µM | GI50 [33] 6.24 µM | GI50 [34] 5.83 µM | GI50 [35] 5.52 µM | GI50 [36] 9.61 µM | GI50 [37] 5.81 µM | GI50 [38] 3.38 µM | GI50 [39] 5.67 µM | GI50 [40] 2.96 µM | GI50 [41] 4.62 µM | GI50 [42] 29.8 µM | GI50 [43] 3.03 µM | GI50 [44] 4.61 µM | GI50 [45] 3.98 µM | GI50 [46] 2.89 µM | GI50 [47] 10.4 µM | GI50 [48] 3.99 µM | GI50 [49] 19.3 µM | GI50 [50] 7.36 µM | GI50 [51] 3.53 µM | GI50 [52] 6.49 µM | GI50 [53] 24.1 µM | GI50 [54] 10.4 µM | GI50 [55] 3.73 µM
71.3 µM: TGI [38]
74 µM: TGI [54]
> 100 µM: TGI [3] | TGI [4] | TGI [6] | TGI [7] | TGI [9] | TGI [10] | TGI [11] | TGI [12] | TGI [14] | TGI [15] | TGI [16] | TGI [18] | TGI [20] | TGI [22] | TGI [23] | TGI [24] | TGI [25] | TGI [27] | TGI [28] | TGI [29] | TGI [30] | TGI [32] | TGI [33] | TGI [35] | TGI [36] | TGI [37] | TGI [39] | TGI [41] | TGI [42] | TGI [43] | TGI [44] | TGI [45] | TGI [47] | TGI [49] | TGI [50] | TGI [51] | TGI [52] | TGI [53] | TGI [55]
34.2 µM: TGI [48]
55.7 µM: TGI [1]
15.6 µM: TGI [19]

O=C(NNc1nc(Cl)nc(N2CCN(C(c3ccccc3)c3ccccc3)CC2)n1)c1ccccc1
30.5 µM: TGI [47]
3.25 µM: TGI [51]
3.42 µM: TGI [11]
4.64 µM: TGI [15]
4.04 µM: TGI [33]
6.26 µM: TGI [50]
3.77 µM: TGI [13] | TGI [25]
3.34 µM: TGI [17]
2.75 µM: TGI [19]
3.09 µM: TGI [40]
3.16 µM: TGI [29]
3.13 µM: TGI [56] | TGI [24] | TGI [35]
3.12 µM: TGI [39]
23.1 µM: TGI [26]
4.41 µM: TGI [48]
6.94 µM: TGI [34]
40.7 µM: TGI [23]
4.07 µM: TGI [21]
4.53 µM: TGI [14] | TGI [20]
3.55 µM: TGI [10]
3.33 µM: TGI [36] | TGI [53]
2.94 µM: TGI [52]
3.06 µM: TGI [22] | TGI [30]
inactive: GI50 [1] 3.41 µM | GI50 [2] 1.72 µM | GI50 [3] 1.73 µM | GI50 [4] 0.734 µM | GI50 [5] 3.79 µM | GI50 [6] 1.68 µM | GI50 [7] 6.44 µM | GI50 [8] 1.75 µM | GI50 [9] 2.54 µM | GI50 [10] 1.83 µM | GI50 [11] 1.62 µM | GI50 [12] 1.72 µM | GI50 [13] 1.96 µM | GI50 [14] 2.15 µM | GI50 [15] 2.04 µM | GI50 [16] 1.83 µM | GI50 [17] 1.69 µM | GI50 [18] 2.06 µM | GI50 [19] 1.43 µM | GI50 [56] 1.62 µM | GI50 [20] 1.28 µM | GI50 [21] 1.92 µM | GI50 [22] 1.66 µM | GI50 [23] 12.7 µM | GI50 [24] 1.69 µM | GI50 [25] 1.93 µM | GI50 [26] 10.8 µM | GI50 [28] 1.66 µM | GI50 [29] 1.63 µM | GI50 [30] 1.62 µM | GI50 [32] 7.25 µM | GI50 [33] 1.88 µM | GI50 [34] 2.47 µM | GI50 [35] 1.65 µM | GI50 [36] 1.73 µM | GI50 [38] 1.94 µM | GI50 [39] 1.59 µM | GI50 [40] 1.69 µM | GI50 [41] 1.99 µM | GI50 [57] 1.72 µM | GI50 [42] > 100 µM | GI50 [43] 1.75 µM | GI50 [44] 1.68 µM | GI50 [45] 1.83 µM | GI50 [46] 5.35 µM | GI50 [47] 13.5 µM | GI50 [48] 2.08 µM | GI50 [58] 2.21 µM | GI50 [49] 1.99 µM | GI50 [50] 2.15 µM | GI50 [51] 1.75 µM | GI50 [52] 1.54 µM | GI50 [53] 1.76 µM | GI50 [54] 3.55 µM | GI50 [55] 4.76 µM
4.29 µM: TGI [41]
3.21 µM: TGI [43]
3.29 µM: TGI [57]
17.2 µM: TGI [9]
> 100 µM: TGI [1] | TGI [4] | TGI [5] | TGI [7] | TGI [42] | TGI [55]
3.1 µM: TGI [6]
4.67 µM: TGI [18] | TGI [49]
5.13 µM: TGI [28]
25.8 µM: TGI [32]
3.68 µM: TGI [2]
3.81 µM: TGI [45]
3.15 µM: TGI [3]
4.84 µM: TGI [58]
3.14 µM: TGI [44]
18.8 µM: TGI [46] | TGI [54]
4.8 µM: TGI [38]
3.17 µM: TGI [8] | TGI [12]
3.64 µM: TGI [16]
